Patent publication US12577238B2, “Compositions and methods for modulating inflammatory and degenerative disorder” (University of Southern California, priority 2018, dated 2026)

Assays:
[1] = target: T1, OSMR and gp130 (Homo sapiens, UniProt P40189); experiment: Receptor competition, gp130-Flag pull-down, OSMR; type: cell-based; settings: in the presence of OSM; IP-FLAG, WB-OSMR
T1 construct: FLAG; expressed in transfected cells; host or cells: adult human chondrocytes
T1 sequence (P40189 23-918): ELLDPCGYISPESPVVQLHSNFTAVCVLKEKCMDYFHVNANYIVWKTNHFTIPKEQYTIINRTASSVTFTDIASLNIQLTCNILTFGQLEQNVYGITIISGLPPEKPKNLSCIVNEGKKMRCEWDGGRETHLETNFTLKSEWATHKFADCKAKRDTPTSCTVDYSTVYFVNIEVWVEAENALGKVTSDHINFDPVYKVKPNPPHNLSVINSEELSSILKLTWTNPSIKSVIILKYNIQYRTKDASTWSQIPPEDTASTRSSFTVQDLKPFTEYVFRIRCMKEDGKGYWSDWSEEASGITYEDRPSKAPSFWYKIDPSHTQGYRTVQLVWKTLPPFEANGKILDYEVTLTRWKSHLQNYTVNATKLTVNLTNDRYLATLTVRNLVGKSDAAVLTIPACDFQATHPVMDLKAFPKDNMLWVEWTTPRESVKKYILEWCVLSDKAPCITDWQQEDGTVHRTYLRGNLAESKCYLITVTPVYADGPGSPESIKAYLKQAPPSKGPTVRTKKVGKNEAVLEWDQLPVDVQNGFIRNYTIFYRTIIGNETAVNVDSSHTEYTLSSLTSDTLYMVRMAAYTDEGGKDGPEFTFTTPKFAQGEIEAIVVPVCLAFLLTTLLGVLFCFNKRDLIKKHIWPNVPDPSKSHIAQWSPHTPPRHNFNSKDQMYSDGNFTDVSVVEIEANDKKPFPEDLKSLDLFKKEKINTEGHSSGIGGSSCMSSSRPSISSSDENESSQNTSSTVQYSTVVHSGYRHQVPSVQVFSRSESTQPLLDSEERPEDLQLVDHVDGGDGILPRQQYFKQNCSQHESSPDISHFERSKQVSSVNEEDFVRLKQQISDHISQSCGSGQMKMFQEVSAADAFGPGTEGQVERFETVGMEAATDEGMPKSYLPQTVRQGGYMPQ
Procedure: Adult human chondrocytes transfected with gp130-Flag were incubated with various concentrations of RCGD 423 in the presence of IL-6 or OSM; levels of immoprecipitated IL-6R or OSMR were used to calculate the dissociation constant (Kd).
Adult human chondrocytes; IP-FLAG AB (transfected with gp130 FLAG plasmid), WB-OSMR.
This property would be of great interest due to the pro-inflammatory and pro-catabolic effects of these cytokines in the joint space. […] To assess whether RCGD 423 could directly compete for gp130 occupancy, human adult articular chondrocytes were transfected with tagged gp130 and then pulled down associated proteins±RCGD 423 and/or IL-6.

[2] = system: Col10a1-RFP reporter in limb bud mesenchymal cells; experiment: High throughput screen, Col10a1 reporter in BMP-4 stimulated limb mesenchymal cells; type: cell-based, mouse; settings: ~170,000 compounds screened
Procedure: The gp130 co-receptor LIFR is expressed on a subset of superficial chondrocytes throughout human ontogeny. […] Given the known (and mostly detrimental roles) of IL-6 family cytokines on articular chondrocytes, a high throughput screen was performed to identify small molecules that could potentially modulate gp130 signaling. In adult mice, IL-6/gp130 signaling drives Col10a1 expression and hypertrophy, which has been strongly associated with OA progression; ˜170,000 compounds were thus screened for their ability to prevent increases in Col10-mCherry fluorescence in mouse limb mesenchymal cells stimulated with BMP-4, a strong driver of hypertrophy (FIG. 2).

[3] = target: T2, gp130 (Rattus norvegicus, UniProt P40190); experiment: Injection into rat knees, pSTAT3 and MYC levels; type: in vivo; settings: injection into rat joints
T2 construct: from tissue; host or cells: rat knee joint in vivo (Sprague-Dawley wild-type in the CFA model)
T2 sequence (P40190 23-918): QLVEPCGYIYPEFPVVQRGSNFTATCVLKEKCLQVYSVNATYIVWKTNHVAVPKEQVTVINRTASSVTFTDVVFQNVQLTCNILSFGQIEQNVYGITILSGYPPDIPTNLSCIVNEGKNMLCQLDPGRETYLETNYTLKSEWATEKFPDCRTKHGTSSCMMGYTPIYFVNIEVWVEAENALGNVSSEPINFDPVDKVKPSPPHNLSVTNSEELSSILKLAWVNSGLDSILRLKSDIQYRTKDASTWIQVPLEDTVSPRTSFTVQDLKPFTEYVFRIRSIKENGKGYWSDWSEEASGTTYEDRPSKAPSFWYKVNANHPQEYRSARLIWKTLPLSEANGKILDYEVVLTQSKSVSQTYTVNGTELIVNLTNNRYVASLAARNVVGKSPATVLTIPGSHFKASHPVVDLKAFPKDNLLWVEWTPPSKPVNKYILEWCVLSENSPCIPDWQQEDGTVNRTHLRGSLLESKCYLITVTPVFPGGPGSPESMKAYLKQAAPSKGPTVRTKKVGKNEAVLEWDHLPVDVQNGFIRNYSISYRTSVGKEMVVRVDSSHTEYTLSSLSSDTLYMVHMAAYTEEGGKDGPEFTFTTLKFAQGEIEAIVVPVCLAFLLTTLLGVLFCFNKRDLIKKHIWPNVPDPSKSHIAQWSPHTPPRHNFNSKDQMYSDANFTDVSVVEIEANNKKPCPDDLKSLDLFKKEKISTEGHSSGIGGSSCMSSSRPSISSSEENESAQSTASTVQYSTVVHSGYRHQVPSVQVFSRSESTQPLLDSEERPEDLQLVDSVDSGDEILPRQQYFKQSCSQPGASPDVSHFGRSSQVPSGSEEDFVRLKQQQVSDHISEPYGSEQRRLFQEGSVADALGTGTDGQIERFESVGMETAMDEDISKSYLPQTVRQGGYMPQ
Procedure: Based on this, it was hypothesized that RCGD 423 acts through gp130 by promoting stable homodimers in the absence of ligand. To confirm that RCGD 423 acts through gp130, the gp130 null cell line Ba/F3 cells was used. Ba/F3 cells were transfected with either full-length gp130 or a mutant gp130 lacking domain 2 (ΔD2), which contains the predicted binding site for RCGD 423 (FIG. 7). […] To verify the specificity of RCGD 423 in vivo, the compound was injected into rat knees in the presence of the small molecule gp130 inhibitor SC144 or a blocking antibody specific for domain 2 of gp130. […] The ability of RCGD 423 to act via inducing formation of gp130 homodimers was then examined by expressing tagged versions of gp130 in 293T cells. In this system, only homodimeric complexes can contain both tagged versions of gp130 (FIG. 9).

Brc1ccc(Nc2nc(-c3ccccc3)cs2)cc1 [RCGD 423]
competition with OSMR for gp130 occupancy / OSMR-gp130 interaction [1]: directly competes with OSMR and IL-6R for gp130 occupancy | ability to prevent increases in Col10-mCherry fluorescence (Col10a1 reporter) [2]: primary hit | pSTAT3 and MYC levels in rat joints [3]: increased pSTAT3 and MYC levels
